Source: patent publication US7105654B1, “Ethylene receptor gene from Glycine max and its use” (Monsanto Technology LLC, priority 2002, dated 2006)

Test system: soybean (Glycine max) seedlings
Assay: ACC insensitivity assay (hypocotyl length of dark-grown seedlings)
Format: in vivo
Details: nontransformed soybean variety Asgrow A4922, grown in the dark; without ACC greater than 70 millimeters
Experimental: FIG. 4. R1 seeds from pMON47103, pMON47104, and pMON47108 were screened by an ACC insensitivity assay. […] Hypocotyl length was measured after six days and the average value presented.
Seeds were germinated in growth pouches (Mega International, Minneapolis, Minn.) containing 25 milliliters of 25 micromolar 1-aminocyclopropane-1-carboxylic acid (ACC) (Sigma Chemical Company) or in tissue culture boxes containing agar, water, and 20 micromolar ACC. Seedlings were kept in the dark for seven days. Growth of hypocotyl and root were scored in comparison to seedlings grown in water with all other conditions identical. An alternative protocol was used to measure growth in a solid matrix. Vermiculite was placed in a 4″×4″ plastic pot to ½″ below the rim. Twelve seeds were placed in each pot beneath the surface of the vermiculite. A solution of 500 micromolar ACC in distilled water was used to saturate the vermiculite. The pots were placed in a tray with additional solution to ensure a supply during incubation. The plants were incubated in a dark ventilated cabinet at room temperature for six days. On the sixth day, seedlings were removed from the vermiculite and rinsed. The hypocotyl length (from first lateral root to the bend of the apical hook) was measured and compared against wild type plants grown in the same environmental condition. […]

Structure (SMILES): NC1(C(=O)O)CC1 [ACC, 1-aminocyclopropane-1-carboxylic acid]
- average height of seedlings in response to applied ACC: less than 20 millimeters
